Measurements: PubChem BioAssay (NCI)
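96-well plates; 48 h exposure; 5 concentrations. Endpoints by linear interpolation between flanking doses. Not reached: highest tested concentration assigned. GI50 is the concentration that inhibits growth by half. TGI is the concentration that stops growth completely.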

Tests used:
Assay in all cases: NCI-60 cell line screen, 48 h
786-0 renal = tested on: 786-0 renal
DMS 273 small cell lung = tested on: DMS 273 small cell lung
HOP-92 NSCLC = tested on: HOP-92 NSCLC
KM20L2 colon = tested on: KM20L2 colon
SN12C renal = tested on: SN12C renal
SR leukemia = tested on: SR leukemia
UACC-62 melanoma = tested on: UACC-62 melanoma

Structure (SMILES) | TGI (786-0 renal) [µM] | TGI (DMS 273 small cell lung) [µM] | TGI (HOP-92 NSCLC) [µM] | TGI (KM20L2 colon) [µM] | TGI (SN12C renal) [µM] | TGI (SR leukemia) [µM] | TGI (UACC-62 melanoma) [µM] | GI50 (786-0 renal) [µM] | GI50 (DMS 273 small cell lung) [µM] | GI50 (KM20L2 colon) [µM] | GI50 (SN12C renal) [µM] | GI50 (UACC-62 melanoma) [µM]
O=C1C2c3[nH]c4ccccc4c3C3CCCCCC3C2C(=O)N1c1ccccc1 (configuration not stated) | > 100 | > 100 | 74.7 | > 100 | > 36.5 | > 53.9 | > 100 |  |  |  |  | 
COc1cc(C2C(C(=O)Nc3ccc([N+](=O)[O-])cc3)=C(C)NC(C)=C2C(=O)Nc2ccc([N+](=O)[O-])cc2)ccc1O | > 100 | 53.3 | 57 | 34.7 | 36.4 | > 44.1 | 42 |  |  |  |  | 
CC(=O)[CH-]C(=O)c1ccccc1.CC(=O)[CH-]C(=O)c1ccccc1.CC(C)CCC[C@H](C)C1CCC2[C@@H]3CC=C4C[C@@H]([O-])CC[C@]4(C)C3CC[C@@]21C.CC(C)CCC[C@H](C)C1CCC2[C@@H]3CC=C4C[C@@H]([O-])CC[C@]4(C)C3CC[C@@]21C.Cl.[Ti+4] (some centres not stated) | > 25 | > 25 |  | > 25 | > 25 |  | > 25 | > 25 | > 25 | > 25 | > 25 | > 25
COc1cc(-c2ccc(NC(=O)SCCC(=O)O)cc2OC)ccc1NC(=O)SCCC(=O)O | > 100 | > 100 |  | > 100 | > 100 | > 100 |  |  |  |  |  | 
COc1cc(/C=C/c2ccc(Br)cc2)cc(OC)c1OC | 52.9 | > 47.5 | 72.3 | 29.8 | 71.8 | > 100 | > 72.1 |  |  |  |  | 
COC1[C@H](NC(=O)OC(C)(C)C)C(=O)N1Cc1ccccc1 (some centres not stated) | > 100 | > 100 | > 100 | > 100 | > 100 |  | > 100 |  |  |  |  | 
COc1ccc(S(=O)(=O)N[C@H](C(=O)O)c2ccccc2)cc1 | > 100 | > 100 |  | > 100 | > 100 |  | > 100 |  |  |  |  | 
CCCCCCCCCCCCCCCCc1c(C(=O)OC)nc(NN)[nH]c1=O | > 50 | > 50 | > 50 | > 50 | > 50 |  | > 50 |  |  |  |  | 
Cc1nc(N)c(-c2ccccc2)s1 | > 100 | > 100 | > 100 | > 100 | > 100 |  | > 100 |  |  |  |  | 
CCN(CC)CC(=O)NC1c2ccccc2Oc2c(C)cccc21 (configuration not stated) | > 100 | > 100 |  | > 100 | > 100 | > 100 | > 100 |  |  |  |  | 
COc1ccc(-c2ccccc2)c2[nH]c3c(c12)CCNC3=O | > 100 | > 100 | > 100 | > 100 | > 100 | > 100 | > 100 |  |  |  |  | 
COC(=O)C1C(=O)O[C@@H](c2ccc(OC)c(OC)c2OC)C1C(=O)OC (mixture of isomers) | > 100 | > 100 | > 100 | > 100 | > 100 | > 100 | > 100 |  |  |  |  | 
COc1ccc2c(c1)[n+](=O)c(C(=O)C/C(=N/NC(=O)C[N+](C)(C)C)C(=O)Nc1cccc(C)c1C)c(C)n2O | > 100 | > 100 | > 100 | > 100 | > 100 |  | > 100 |  |  |  |  | 
N#C/C(=C\c1cc(O)ccc1O)C(N)=O | > 100 | > 100 | > 100 | > 100 | > 100 |  | 88.1 |  |  |  |  | 
Cc1cc(=O)n(-c2c(C)cccc2Cl)c(/C=C(\O)c2ccncc2)n1 | > 100 | > 100 | > 100 | > 100 | > 100 |  | > 100 |  |  |  |  | 
O=C(CO[N+](=O)[O-])OC/C=C/c1ccccc1 | > 100 | > 100 | > 100 | > 100 | > 100 | > 100 |  |  |  |  |  | 
CC1CCC(=O)C(C(O)CC2CC(=O)N(c3ccccc3)C(=O)C2)C1 (configuration not stated) | > 100 | > 100 | > 100 | > 100 | > 100 | > 100 | > 100 |  |  |  |  | 
CC(=O)OCC1OC(OCc2ccccc2)C(Br)C(OC(C)=O)C1OC(C)=O (configuration not stated) | > 100 | > 100 | > 100 | > 100 | > 100 | > 100 | > 100 |  |  |  |  | 
COc1cc2c(cc1O)CN1CCC23C=C[C@@H](O)CC13 (some centres not stated) | > 100 | > 100 | > 100 | > 100 | > 100 | > 100 | > 100 |  |  |  |  | 
CCOc1ccc(OCC)c([P+](c2ccccc2)(c2ccccc2)c2ccccc2)c1 | 15.6 | 1.21 | 0.95 | 4.13 | 5.61 |  | 14.8 |  |  |  |  | 
CN(NC1OC(CO)C(O)C(O)C1O)c1ccccc1 (configuration not stated) | > 100 | > 100 | > 100 | > 100 |  | > 100 | > 100 |  |  |  |  | 
COC1OC(CBr)C(OC(=O)c2ccccc2)C(OS(=O)(=O)c2ccc(C)cc2)C1Br (configuration not stated) | > 100 | > 100 | > 100 | > 100 | > 100 | > 100 |  |  |  |  |  | 
